Results reported in patent US6544502B2, “Skin treatment with a water soluble antibiotic dissolved in an electrolyzed water” (Wasatch Pharmaceutical Inc., priority 1992, dated 2003).

Key:
[1] = Solubility of antibiotic (water, lipoid); format: physicochemical
[2] = Stability of antibiotic in aqueous solution; format: physicochemical; conditions: hydrate salt in water

For Doxycycline hyclate, the lipoid solubility [1] was “high degree of lipoid solubility”, the solubility in water [1] was “readily soluble in water” and the “stability of water soluble salt” value [2] was “no pH sensitivity or breakdown into the inactive ingredients”.
